# Experimental data from patent publication US20130018033A1, “RAF INHIBITOR COMPOUNDS AND METHODS OF USE THEREOF” (ARRAY BIOPHARMA INC., priority 2009, published 2013).
# Like-named read-outs stand apart in the source and are kept apart here.
# Assays:
# V600E full-length B-Raf = target: T1, V600E full-length B-Raf (Homo sapiens, UniProt P15056, V600E); assay: B-Raf IC50 assay (Example A); type: biochemical
# T1 construct: 1 μM FSBA-MEK and 20 nM V600E full-length B-Raf; made in house; host or cells: Sf9 insect cells (baculovirus)
# T1 sequence (P15056 whole entry V600E): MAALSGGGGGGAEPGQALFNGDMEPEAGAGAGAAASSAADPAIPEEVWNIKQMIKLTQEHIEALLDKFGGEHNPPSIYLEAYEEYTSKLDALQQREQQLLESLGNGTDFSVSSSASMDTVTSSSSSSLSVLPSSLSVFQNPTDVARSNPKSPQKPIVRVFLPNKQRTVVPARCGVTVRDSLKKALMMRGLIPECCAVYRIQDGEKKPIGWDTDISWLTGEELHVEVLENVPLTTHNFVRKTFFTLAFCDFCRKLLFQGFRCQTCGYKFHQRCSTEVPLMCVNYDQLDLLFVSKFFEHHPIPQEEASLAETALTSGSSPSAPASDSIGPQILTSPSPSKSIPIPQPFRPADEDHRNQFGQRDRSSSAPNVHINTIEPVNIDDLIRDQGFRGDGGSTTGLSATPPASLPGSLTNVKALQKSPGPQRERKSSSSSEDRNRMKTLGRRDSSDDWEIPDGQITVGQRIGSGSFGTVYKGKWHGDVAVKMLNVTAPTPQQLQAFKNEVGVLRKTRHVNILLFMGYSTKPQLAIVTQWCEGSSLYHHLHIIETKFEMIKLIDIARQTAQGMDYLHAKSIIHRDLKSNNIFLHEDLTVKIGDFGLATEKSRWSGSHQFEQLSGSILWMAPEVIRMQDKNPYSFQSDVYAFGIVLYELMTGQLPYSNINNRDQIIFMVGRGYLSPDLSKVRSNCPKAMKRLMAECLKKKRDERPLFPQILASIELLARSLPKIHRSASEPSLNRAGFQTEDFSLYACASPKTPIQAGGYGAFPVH
# Source text: Determining the activity of Raf in the sample is possible by a number of direct and indirect detection methods (US 2004/0082014). Activity of human recombinant B-Raf protein may be assessed in vitro by assay of the incorporation of radio labeled phosphate to recombinant MAP kinase (MEK), a known physiologic substrate of B-Raf, according to US 2004/0127496 and WO 03/022840. The activity/inhibition of V600E full-length B-Raf was estimated by measuring the incorporation of radio labeled phosphate from [γ-^33P]ATP into FSBA-modified wild-type MEK (see Example A).
# Activity of human recombinant B-Raf protein may be assessed in vitro by assay of the incorporation of radio labeled phosphate to recombinant MAP kinase (MEK), a known physiologic substrate of B-Raf, according to US 2004/0127496 and WO 03/022840. Catalytically active human recombinant B-Raf protein is obtained by purification from sf9 insect cells infected with a human B-Raf recombinant baculovirus expression vector.
# The activity/inhibition of V600E full-length B-Raf was estimated by measuring the incorporation of radio labeled phosphate from [γ-^33P]ATP into FSBA-modified wild-type MEK. The 30-μL assay mixtures contained 25 mM Na Pipes, pH 7.2, 100 mM KCl, 10 mM MgCl2, 5 mM β-glycerophosphate, […], 4 μM ATP, 500 nCi [γ-^33P]ATP, 1 μM FSBA-MEK and 20 nM V600E full-length B-Raf. Incubations were carried out at 22° C. in a Costar 3365 plate (Corning). Prior to the assay, the B-Raf and FSBA-MEK were preincubated together in assay buffer at 1.5×(20 μL of 30 nM and 1.5 μM, respectively) for 15 minutes, and the assay was initiated by the addition of 10 μL of 10 μM ATP. Following the 60-minute incubation, the assay mixtures were quenched by the addition of 100 μL of 25% TCA, the plate was mixed on a rotary shaker for 1 minute, and the product was captured on a Perkin-Elmer GF/B filter plate using a Tomtec Mach III Harvester. After sealing the bottom of the plate, 35 μL of Bio-Safe II (Research Products International) scintillation cocktail were added to each well and the plate was top-sealed and counted in a Topcount NXT (Packard).
# [1] = tested on: basal ERK1/2 phosphorylation in Malme-3M cells; assay: Cellular ERK 1/2 phosphorylation assay (Example A1); type: cell-based; conditions: Homo sapiens, 1 hour incubation, pERK normalized to total ERK, read-out: P-ERK Malme3-M IC50
# Description: Inhibition of basal ERK1/2 phosphorylation was determined by the following in vitro […], which comprises incubating cells with a compound of Formula I for 1 hour and quantifying the fluorescent pERK signal on fixed cells and normalizing to total ERK signal.
# Malme-3M cells were obtained from ATCC and grown in RPMI-1640 supplemented with 10% fetal bovine serum. Cells were plated in 96-well plates at 24,000 cells/well and allowed to attach for 16-20 hours at 37° C., 5% CO2. The media was removed, and DMSO-diluted compounds were added in RPMI-1640 at a final concentration of 1% DMSO. The cells were incubated with the compounds for 1 hour at 37° C., 5% CO2. The cells were washed with PBS and fixed in 3.7% formaldehyde in PBS for 15 minutes. This was followed by washing in PBS/0.05% Tween20 and permeabilizing in −20° C. 100% MeOH for 15 minutes. Cells were washed in PBS/0.05% Tween20 then blocked in Odyssey blocking buffer (LI-COR Biosciences) for 1 hour. Antibodies to phosphorylated ERK (1:400, Cell Signaling #9106, monoclonal) and total ERK (1:400, Santa Cruz Biotechnology #sc-94, polyclonal) were added to the cells and incubated 16-20 hours at 4° C. After washing with PBS/0.05% Tween20, the cells were incubated with fluorescently-labeled secondary antibodies (1:1000 goat anti-rabbit IgG-IRDye800, Rockland and 1:500 goat anti-mouse IgG-Alexa Fluor 680, Molecular Probes) for an additional hour. Cells were then washed and analyzed for fluorescence at both wavelengths using the Odyssey Infrared Imaging System (LI-COR Biosciences). Phosphorylated ERK signal was normalized to total ERK signal.
# [2] = B-Raf V600E assay of Example A, read-out: IC50
# [3] = [γ-33P]ATP incorporation into FSBA-MEK, 4 μM ATP, read-out: BRAF V600E IC50
Structure (SMILES),IC50 (V600E full-length B-Raf; [2]),IC50 (V600E full-length B-Raf; [3]),IC50 [1]
"Nc1ncnc2c(C(=O)Nc3c(F)ccc(NS(=O)(=O)c4ccccc4)c3F)cccc12 [Example 32, 4-Amino-quinazoline-8-carboxylic acid (3-benzenesulfonylamino-2,6-difluoro-phenyl)-amide]",< 100 nM,0.38 nM,17.7 nM
"CCNc1ncnc2c(C(=O)Nc3c(F)c(F)cc(NS(=O)(=O)CCCF)c3F)cccc12 [Example 52, 4-Ethylamino-quinazoline-8-carboxylic acid [2,3,6-trifluoro-5-(3-fluoro-propane-1-sulfonylamino)-phenyl]-amide]",< 1000 nM,290 nM,5290 nM
"CCCS(=O)(=O)Nc1ccc(F)c(NC(=O)c2cccc3c(N)ncnc23)c1OC [Example 4, 4-Amino-quinazoline-8-carboxylic acid [6-fluoro-2-methoxy-3-(propane-1-sulfonylamino)-phenyl]-amide]",< 1000 nM,191 nM,433 nM
"CCCS(=O)(=O)Nc1ccc(C#N)c(NC(=O)c2ccnc3c(N)ncnc23)c1F [Example 69, 4-Amino-pyrido[3,2-d]pyrimidine-8-carboxylic acid [6-cyano-2-fluoro-3-(propane-1-sulfonylamino)-phenyl]-amide]",< 100 nM,19.5 nM,306 nM
"Nc1ncnc2c(C(=O)Nc3c(F)ccc(NS(=O)(=O)CCCF)c3F)ccnc12 [Example 66, 4-Amino-pyrido[3,2-d]pyrimidine-8-carboxylic acid [2,6-difluoro-3-(3-fluoro-propane-1-sulfonylamino)-phenyl]-amide]",< 100 nM,0.75 nM,3.04 nM
"CCCS(=O)(=O)Nc1ccc(Cl)c(NC(=O)c2ccnc3c(N)ncnc23)c1F [Example 65, 4-Amino-pyrido[3,2-d]pyrimidine-8-carboxylic acid [6-chloro-2-fluoro-3-(propane-1-sulfonylamino)-phenyl]-amide]",< 100 nM,1.14 nM,9.4 nM
"Nc1ncnc2c(C(=O)Nc3c(Cl)ccc(NS(=O)(=O)CCCF)c3Cl)cccc12 [Example 27, 4-Amino-quinazoline-8-carboxylic acid [2,6-dichloro-3-(3-fluoro-propane-1-sulfonylamino)-phenyl]-amide]",< 100 nM,0.08 nM,4.07 nM
"Nc1ncnc2c(C(=O)Nc3c(F)ccc(NS(=O)(=O)CCCF)c3Cl)cccc12 [Example 24, 4-Amino-quinazoline-8-carboxylic acid [2-chloro-6-fluoro-3-(3-fluoro-propane-1-sulfonylamino)-phenyl]-amide]",< 100 nM,0.14 nM,4.05 nM
"CCCS(=O)(=O)Nc1ccc(F)c(NC(=O)c2cc(C#CCO)cc3c(N)ncnc23)c1F [Example 40, 4-Amino-6-(3-hydroxy-prop-1-ynyl)-quinazoline-8-carboxylic acid [2,6-difluoro-3-(propane-1-sulfonylamino)-phenyl]-amide]",< 100 nM,2.2 nM,158 nM
"CCCS(=O)(=O)Nc1cc(F)c(F)c(NC(=O)c2cccc3c(NCCF)ncnc23)c1F [Example 43, 4-(2-Fluoro-ethylamino)-quinazoline-8-carboxylic acid [2,3,6-trifluoro-5-(propane-1-sulfonylamino)-phenyl]-amide]",< 1000 nM,293 nM,2910 nM
"CCCS(=O)(=O)Nc1ccc(F)c(NC(=O)c2ccnc3c(N)ncnc23)c1F [Example 64, 4-Amino-pyrido[3,2-d]pyrimidine-8-carboxylic acid [2,6-difluoro-3-(propane-1-sulfonylamino)-phenyl]-amide]",< 100 nM,3.11 nM,9.7 nM
"CCCS(=O)(=O)Nc1ccc(Cl)c(NC(=O)c2cccc3c(N)ncnc23)c1Cl [Example 7, 4-Amino-quinazoline-8-carboxylic acid [2,6-dichloro-3-(propane-1-sulfonylamino)-phenyl]-amide]",< 100 nM,0.07 nM,7.2 nM
"Nc1ncnc2c(C(=O)Nc3c(F)ccc(NS(=O)(=O)CC4CC4)c3F)cccc12 [Example 13, 4-Amino-quinazoline-8-carboxylic acid (3-cyclopropyl-methane-sulfonylamino-2,6-difluoro-phenyl)-amide]",< 100 nM,3.8 nM,14.9 nM
"CCCS(=O)(=O)Nc1ccc(F)c(NC(=O)c2cc(F)cc3c(N)ncnc23)c1Cl [Example 78, 4-Amino-6-fluoro-quinazoline-8-carboxylic acid [2-chloro-6-fluoro-3-(propane-1-sulfonylamino)-phenyl]-amide]",< 100 nM,0.49 nM,15.7 nM
"CN(C)S(=O)(=O)Nc1ccc(Cl)c(NC(=O)c2cccc3c(N)ncnc23)c1F [Example 38, 4-Amino-N-(6-chloro-3-(N,N-dimethylsulfamoylamino)-2-fluorophenyl)quinazoline-8-carboxamide]",< 100 nM,7.01 nM,28 nM
"CC(C)CS(=O)(=O)Nc1ccc(Cl)c(NC(=O)c2cccc3c(N)ncnc23)c1F [Example 15, 4-Amino-quinazoline-8-carboxylic acid [6-chloro-2-fluoro-3-(2-methyl-propane-1-sulfonylamino)-phenyl]-amide]",< 100 nM,0.5 nM,6.08 nM
"CCCS(=O)(=O)Nc1cc(Cl)cc(NC(=O)c2cccc3c(N)ncnc23)c1F [Example 14, 4-Amino-quinazoline-8-carboxylic acid [5-chloro-2-fluoro-3-(propane-1-sulfonylamino)-phenyl]-amide]",< 100 nM,27.9 nM,381 nM
"NC(=O)c1ccc(NS(=O)(=O)CCCF)c(F)c1NC(=O)c1ccnc2c(N)ncnc12 [Example 68, 4-Amino-pyrido[3,2-d]pyrimidine-8-carboxylic acid [6-carbamoyl-2-fluoro-3-(3-fluoro-propane-1-sulfonylamino)-phenyl]-amide]",< 100 nM,14.5 nM,124 nM
"N#Cc1c(NS(=O)(=O)N2CCCC2)ccc(F)c1NC(=O)c1cccc2c(N)ncnc12 [Example 35, 4-Amino-quinazoline-8-carboxylic acid [2-cyano-6-fluoro-3-(pyrrolidine-1-sulfonylamino)-phenyl]-amide]",< 100 nM,0.16 nM,7.48 nM
"CC(C)CS(=O)(=O)Nc1ccc(F)c(NC(=O)c2cccc3c(N)ncnc23)c1Cl [Example 10, 4-Amino-quinazoline-8-carboxylic acid [2-chloro-6-fluoro-3-(2-methyl-propane-1-sulfonylamino)-phenyl]-amide]",< 100 nM,0.55 nM,6.73 nM
"CCCS(=O)(=O)Nc1ccc(Cl)c(NC(=O)c2cccc3cncnc23)c1F [Example 58, Quinazoline-8-carboxylic acid [6-chloro-2-fluoro-3-(propane-1-sulfonylamino)-phenyl]-amide]",< 100 nM,17.1 nM,301 nM
